Data set [1] has as its system B16-Ova cells. As to the kind of experiment: ATP levels in cell-free culture media by CellTiter-Glo. Format: cell-based, mouse. The note with it: for ATP (nM) MEAN: culture media 24-48 hours after treatment. On the procedure: For measurement of ATP levels, cell-free culture media obtained as above was analyzed by CellTiter-Glo according to the manufacturer's protocol. Values were converted to ATP concentrations using a standard curve generated using pure ATP.
In general terms: Cellular ATP, detected with luciferase, serves as a proxy for viable cell number.

For data set [2], the system named is B16-Ova cells. Description: Calreticulin surface exposure by flow cytometry. The note with it: for CALR (%): 24 hours after treatment, representative experiment; for level of externalized calreticulin: 24 hours of drug exposure. For orientation: Flow cytometry measures light scatter and fluorescence of single cells or particles in a stream.
For the next data set, the system named is BMDCs. As to the kind of experiment: Viability of BMDCs upon exposure to etoposide.
For data set [3], the system named is B16-Ova tumors. As to the kind of experiment: Flank B16-Ova tumors in mice: tumor size, survival, re-challenge. Format: in vivo, C57BL/6J WT mice. The conditions noted are these: intratumoral injection alone, three weekly doses. On the procedure:
Cross-sectional area of tumors was measured in mm^2 using calipers every 2-3 days. In tumor re-challenge experiments, naive mice controls or mice who had complete tumor regression and remained tumor free for at least 60 days were subcutaneously injected in the left flank (contra-lateral to the initial tumor) with 0.1×10^6 B16-Ova cells, and tumor development was monitored for another 60 days.

The test system of data set [4] is B16-Ova tumors. As to the kind of experiment: Circulating H2-Kb/[…]-tetramer positive CD8+ T-cells in mice bearing B16-Ova tumors. Type of data set: in vivo, C57BL/6J WT mice. The conditions noted are these: bled after the second intra-tumoral dose. On the procedure: Briefly, 50 μl of whole blood was collected by retro-orbital bleeding, centrifuged at 250×g for 5 min, followed by 3 rounds of RBC lysis in 200 ul of ACK buffer. Cells were then washed once in Tetramer stain buffer (PBS containing 5 mM EDTA, 1% BSA and 50 nM Dasatinib), and stained with PE-conjugated Tetramer for 40 min at RT, followed by co-staining with anti-CD8 for 10 min at 4° C. Cells were then stained with DAPI, washed and re-suspended in tetramer stain buffer for flow cytometry analysis.

In data set [5] the test system is B16-Ova tumors. As to the kind of experiment: Immunophenotyping of intra-tumoral DC by flow cytometry. The conditions noted are these: combined with checkpoint blockade; after 2 doses of vaccine or etoposide and 3 doses of checkpoint blockade. Format: in vivo, mice. On the procedure: Phenotypic characterization of immune cell populations was performed by flow cytometry. Briefly, tumors were harvested and mashed through a […] filter. Collected cells were washed in FACS buffer (PBS containing 5 mM EDTA and 1% BSA), resuspended, and counted. Five million cells from each sample were stained with fluorophore-conjugated antibodies on ice for 30 min, co-stained with Aqua, washed, resuspended in 450 μl, supplemented with 50 μl of CountBright absolute counting beads, and analyzed on a BD LSR Fortessa flow cytometer. DCs were scored as CD45+Ly6CCD24+MHCII+F480−(CD11b+ or CD103+) cells using the gating strategy described in Broz M L, et al., Cancer Cell, 8; 26(6):938 (2014).
To test whether the efficacy of the tumor cell vaccine and checkpoint combination treatment for an anti-tumor immune response depends on DCs that can cross-present tumor antigens, the numbers of CD11b^+C103^−DC2 cells and CD11b^−CD103^+DC1 cells were enumerated by immunophenotyping and flow cytometry. […] As before, mice bearing flank B16-Ova tumors were treated with saline or the tumor cell vaccine intra-tumorally, in the presence or absence of systemic checkpoint blockade (FIG. 5A), and analyzed. […]

Data on two compounds can be found in patent publication US20210154281A1, “CELL-BASED CANCER VACCINES AND CANCER THERAPIES” (Massachusetts Institute of Technology, priority 2019, published 2021).

In the case of `COc1cc([C@@H]2c3cc4c(cc3[C@@H](O[C@@H]3O[C@@H]5CO[C@@H](C)O[C@H]5[C@H](O)[C@H]3O)[C@H]3COC(=O)[C@H]23)OCO4)cc(OC)c1O` [Etop, etoposide], the “ATP (nM) MEAN” value is reported as 2.05 nM in the data set with B16-Ova cells [1] (10 uM) and 1.35 nM in the data set on B16-Ova cells [1] (50 uM). For the same compound, the “CALR (%)” value in the data set on B16-Ova cells [2] (10 uM) and in the data set with B16-Ova cells [2] (50 uM) was 9.69% each time. Further, the “level of externalized calreticulin” value in the data set with B16-Ova cells [2] is listed as “intermediate levels of calreticulin exposure”. Also, in the data set on BMDCs, the “viability of BMDCs” value is “significantly reduced”. Also, the tumor growth result in the data set on B16-Ova tumors [3] is “no effect on tumor growth”. Further, the “H2-Kb-SIINFEKL (SEQ ID NO: 1)-specific T-cells (%) MEAN” value with B16-Ova tumors [4] was determined as 0.29%. The “number of CD103+DC1 in tumors” value with B16-Ova tumors [5] is “did not enhance numbers of CD103+DC1”.
Regarding `O=C1c2c(O)ccc(O)c2C(=O)c2c(NCCNCCO)ccc(NCCNCCO)c21` [Mito, mitoxantrone], the “ATP (nM) MEAN” value came to 1.02 nM in the data set with B16-Ova cells [1] (10 uM) and 1.80 nM with B16-Ova cells [1] (50 uM). Also, the ATP release entry in the data set with B16-Ova cells [1] (after 24 hours of treatment) is given as “Substantial ATP release”. For the same compound, the “CALR (%)” value in the data set with B16-Ova cells [2] (10 uM) was 17.10%; in the data set with B16-Ova cells [2] (50 uM), 4.15%. The “level of externalized calreticulin” value with B16-Ova cells [2] is listed as “highest level of externalized calreticulin”.
